US20230131111A1, “BIODEGRADABLE POLYIMIDAZOLIUMS AND OLIGOIMIDAZOLIUMS” (Nanyang Technological University, priority 2020, published 2023)

Tests used:
MDR A. baumannii AB-1 = test: Murine septicemia model; format: in vivo, BALB/c mice; conditions: single dose 15 mg/kg
Procedure: (§1) Murine septicemia model was used to evaluate the in vivo efficacy of PIM1D. The experiment for mice septicemia infection model of MDR P. aeruginosa PAER and MDR A. baumannfi AB-1 was conducted within guidance of approved protocol by the Institutional Care and Use Committee of Nanyang Technological University (NTU IACUC). The experiments for murine septicemia infection model of wild type P. aeruginosa PAO1 and methicillin-resistant S. aureus MRSA USA300 were conducted following protocol reviewed and approved by Animal Ethics and Welfare Committee (AEWC) of Ningbo University. BALB/c female mice (8-9 weeks of age) were used to test the septic shock protection efficacy for all murine infection models. Exponential phase bacteria were washed twice with saline, and re-suspended into the same volume of saline. 300 μL bacterial suspension with varied concentration in 5% mucin was introduced into each mouse via IP injection to first determine the lethal bacterial dosage, and the determined concentration was then used in the following study. […] Mouse survival was monitored over 7 days. […] Bacterial loads were also evaluated in the spleen, liver and kidney of the animal. […] The bacterial levels were analyzed with one-way classification analysis of variance (ANOVA) and two-tailed student's t-test (Graphpad Prism for Windows, version 7).

K. pneumoniae (#13883) = test: Neutropenic lung infection model; format: in vivo, BALB/c mice
Procedure: (§2) Immunosuppression was induced by IP injection of cyclophosphamide (150 mg/kg) at day 4 and cyclophosphamide (100 mg/kg) at day 1 into BALB/c female mice (8-9 weeks of age) before infection was introduced. Lung infection was established by intratracheal delivery of MRSA USA300 or K. pneumoniae (#13883). […] The mice were monitored for survival over one week. In a separate experiment, mice lungs were harvested 26 h post-infection and homogenized, followed by plating to check the bacterial burden. The animal study protocols were approved by animal ethics and welfare committee at Ningbo University.

E. cloacae CRE (MDR) = test: MIC90 broth microdilution; format: cell-based, Enterobacter cloacae
A. baumannii X26 = test: MIC90 broth microdilution; format: cell-based, Acinetobacter baumannii; design: MIC90 A. baumanii X26 (MDR): unit not given here
P. aeruginosa PAO1 [1] = test: Propidium iodide (PI) staining; format: cell-based, Pseudomonas aeruginosa; conditions: 1 h incubation
Procedure: P. aeruginosa PAO1 was used in the PI experiments. Cells grown in MHB were harvested in mid-Log phase and resuspended in fresh MHB. PIM1 or colistin (positive control) was added at the indicated concentrations. After 1-hour incubation with the antimicrobials, the cell suspensions were sampled to determine cells numbers by plate counting. The remaining cells were washed with PBS and stained with PI (15 μg/mL) according to the manufacturer's protocol. Attune N×T Flow cytometry (Thermo Fisher Scientific, USA) was used to determine the percent of cells that had taken up PI (dead cells). A Zeiss LSM800 confocal microscope was used to image cells on a polylysine-coated petri-dish (MatTek Corporation, USA).

A549 cells = test: Mammalian cell cytotoxicity, MTT; format: cell-based, Human
P. aeruginosa PAK pmrB12 = test: MIC90 broth microdilution; format: cell-based, Pseudomonas aeruginosa
HepG2 cells = test: Mammalian cell cytotoxicity, MTT; format: cell-based, Human
[2] = system: K. pneumoniae BAK085 (MDR); test: MIC90 broth microdilution; format: cell-based, Klebsiella pneumoniae
A. baumannii X40 (EDR) = test: MIC90 broth microdilution; format: cell-based, Acinetobacter baumannii
A. baumannii AB-1 (MDR) = test: MIC90 broth microdilution; format: cell-based, Acinetobacter baumannii
P. aeruginosa PAER = test: MIC90 broth microdilution; format: cell-based, Pseudomonas aeruginosa
3T3 cells = test: Mammalian cell cytotoxicity, MTT; format: cell-based, Mouse; conditions: half-maximal inhibition of cell viability
A. baumannii X39 = test: MIC90 broth microdilution; format: cell-based, Acinetobacter baumannii; design: MIC90 A. baumanii X39 (XDR): unit not given here
K. pneumoniae M7 (MDR) = test: MIC90 broth microdilution; format: cell-based, Klebsiella pneumoniae
P. aeruginosa PAO1 [3] = test: MIC90 broth microdilution; format: cell-based, Pseudomonas aeruginosa
E. coli 958 (MDR) = test: MIC90 broth microdilution; format: cell-based, Escherichia coli
HEK293 cells = test: Mammalian cell cytotoxicity, MTT; format: cell-based, Human
[4] = system: K. pneumoniae SGH10 (clinical strain); test: MIC90 broth microdilution; format: cell-based, Klebsiella pneumoniae
[5] = system: P. aeruginosa PAES (clinical); test: MIC90 broth microdilution; format: cell-based, Pseudomonas aeruginosa
E. cloacae ECLOS (MDR) = test: MIC90 broth microdilution; format: cell-based, Enterobacter cloacae
K. pneumoniae KPNR (MDR) = test: MIC90 broth microdilution; format: cell-based, Klebsiella pneumoniae
[6] = system: Burkholderia thailandensis 700388; format: cell-based; design: MIC90 Burkholderia thailandensis 700388: unit not given here; conditions: for MIC90 Burkholderia thailandensis 700388: naturally colistin-resistant
S. aureus BAA40 (MRSA) = test: MIC90 broth microdilution; format: cell-based, Staphylococcus aureus; design: unit not given here
E. faecalis 583 (VRE) = test: MIC90 broth microdilution; format: cell-based, Enterococcus faecalis; design: unit not given here
S. aureus USA300 (MRSA) = test: MIC90 broth microdilution; format: cell-based, Staphylococcus aureus
[7] = system: Mycobacterium bovis bacillus Calmette-Guérin; format: cell-based
P. aeruginosa PAO1 [8] = test: Laboratory evolution of resistance, sequential passage; conditions: 30 days of passage
MRSA USA300 = test: Neutropenic lung infection model; format: in vivo, BALB/c mice; conditions: 20 mg/kg intratracheal, one week
Procedure: as §2

[9] = system: methicillin-resistant S. aureus MRSA USA300; test: Murine septicemia model, immunosuppressed mice; format: in vivo, BALB/c mice; conditions: 15 mg/kg IP at 2 h and 26 h post-infection
Procedure: as §1, with “7). […]” for “7).”

P. aeruginosa PAO1 [10] = test: Membrane electric potential, DiS-C3-(5); format: cell-based, Pseudomonas aeruginosa; conditions: 30 min after addition
Procedure: Agents Chemother. 2000, 44, 3317-3321). […] The cell suspension (180 μL) was then added to each well of a 96-well plate, and the test compounds were added to the wells as indicated to bring the final mixture to 200 μL. Fluorescence was measured in each well every 2 min in a Spark 10M microtiter plate reader (Tecan, Switzerland) with excitation at 622 nm and emission 670 nm. Data were collected at 30 min after the addition of the test compound. Two independent experiments were conducted, and the data here are mean values±SD.

P. aeruginosa PAO1 [11] = test: Killing of stationary phase bacteria; format: cell-based, Pseudomonas aeruginosa
Source text: We used a previously reported method (S. Meylan et al., Cell Chem. Biol. 2017, 24, 195-206) to determine the effect of PIM1 and other antibiotics on the survival of stationary phase P. aeruginosa PAO1, except the stationary-phase cells were obtained by overnight growth in MHB, and we compared PIM1 with GEN. The results were compared to those with P. aeruginosa PAO1 harvested from MHB culture at the mid-Log growth phase. In addition, we tested the ability of an energy source to potentiate PIM1 killing of stationary-phase P. aeruginosa by addition of fumarate (15 mM) to the stationary-phase cells.

[12] = half-maximal inhibition of cell viability

C[C@@H](O)[C@H]1C(=O)N2C(C(=O)O)=C(SCCN=CN)C[C@H]12 [Imp, Imipenem]
survival (MDR A. baumannii AB-1): 80%

colistin
survival (K. pneumoniae (#13883); 20 mg/kg intratracheal, one week): survived
reduction of K. pneumoniae in lung (K. pneumoniae (#13883); single 20 mg/kg intratracheal, versus infection control): similar
MIC90 E. cloacae CRE (MDR) (E. cloacae CRE (MDR)): 2 µg/mL
MIC90 A. baumanii X26 (MDR) (A. baumannii X26): 2
MIC90 A. baumannii X26 (EDR) (A. baumannii X26): 2 µg/mL
propidium iodide uptake (P. aeruginosa PAO1 [1]): almost all cells treated with colistin were stained
IC50 Human epithelial (A549) (A549 cells; MTT): >1,024 μg/ml
IC50 Human epithelial (A549) (A549 cells; [12]): >1024 μg per mL
MIC90 P. aeruginosa PAK pmrB12 (P. aeruginosa PAK pmrB12): 16 µg/mL
IC50 Human liver (HepG2) (HepG2 cells; MTT): >1024 µg/mL
IC50 Human liver (HepG2) (HepG2 cells; [12]): >1024 μg per mL
MIC90 K. pneumoniae BAK085 (MDR) [2]: 2 µg/mL
MIC90 A. baumannii X40 (EDR) (A. baumannii X40 (EDR)): 8 µg/mL
MIC90 A. baumanii AB-1 (MDR) (A. baumannii AB-1 (MDR)): 2 mg per mL
MIC90 A. baumannii AB-1 (MDR) (A. baumannii AB-1 (MDR)): 2 µg/mL
MIC90 P. aeruginosa PAER (P. aeruginosa PAER): 1 mg per mL
MIC90 P. aeruginosa PAER (MDR) (P. aeruginosa PAER): 1 µg/mL
IC50 Mouse fibroblast (3T3) (3T3 cells): >1024 μg per mL
MIC90 A. baumanii X39 (XDR) (A. baumannii X39): 4-8
MIC90 A. baumannii X39 (EDR) (A. baumannii X39): 4 to 8 µg/mL
MIC90 K. pneumoniae M7 (MDR) (K. pneumoniae M7 (MDR)): 16 to 32 µg/mL
MIC90 P. aeruginosa PAO1 (P. aeruginosa PAO1 [3]): 2 µg/mL
MIC90 E. coli 958 (MDR) (E. coli 958 (MDR)): 2 µg/mL
IC50 Human kidney (HEK293) (HEK293 cells; MTT): 64 µg/mL
IC50 Human kidney (HEK293) (HEK293 cells; [12]): 64 μg per mL
MIC90 K. pneumoniae SGH10 (clinical strain) [4]: 2 µg/mL
MIC90 P. aeruginosa PAES (clinical) [5]: 2 µg/mL
MIC90 E. cloacae ECLOS (MDR) (E. cloacae ECLOS (MDR)): 16 µg/mL
MIC90 K. pneumoniae KPNR (MDR) (K. pneumoniae KPNR (MDR)): 2 µg/mL
MIC90 B. Thailandensis 700388 [6]: >128 µg/mL
MIC90 Burkholderia thailandensis 700388 [6]: >128

polymyxin B
MIC90 A. baumanii X26 (MDR) (A. baumannii X26): 4
IC50 Human epithelial (A549) (A549 cells; [12]): 879 μg per mL
MIC90 S. aureus BAA40 (MRSA) (S. aureus BAA40 (MRSA)): 64-128
IC50 Human liver (HepG2) (HepG2 cells; [12]): 765 μg per mL
MIC90 A. baumanii AB-1 (MDR) (A. baumannii AB-1 (MDR)): 2 mg per mL
MIC90 P. aeruginosa PAER (P. aeruginosa PAER): 2 mg per mL
IC50 Mouse fibroblast (3T3) (3T3 cells): 920 μg per mL
MIC90 A. baumanii X39 (XDR) (A. baumannii X39): 8
MIC90 E. faecalis 583 (VRE) (E. faecalis 583 (VRE)): >128
IC50 Human kidney (HEK293) (HEK293 cells; [12]): 240 μg per mL
MIC90 S. aureus USA300 (MRSA) (S. aureus USA300 (MRSA)): 64-128 mg per mL
MIC90 Mycobacterium bovis bacillus Calmette-Guérin [7]: 64 mg per mL
MIC90 Burkholderia thailandensis 700388 [6]: >128

O=C(O)c1cn(C2CC2)c2cc(N3CCNCC3)c(F)cc2c1=O [ciprofloxacin]
emergence of resistant mutants (P. aeruginosa PAO1 [8]): ciprofloxacin-resistant mutants emerged

CN[C@H](CC(C)C)C(=O)N[C@H]1C(=O)N[C@@H](CC(N)=O)C(=O)N[C@H]2C(=O)N[C@H]3C(=O)N[C@H](C(=O)N[C@H](C(=O)O)c4cc(O)cc(O)c4-c4cc3ccc4O)[C@H](O)c3ccc(c(Cl)c3)Oc3cc2cc(c3O[C@@H]2O[C@H](CO)[C@@H](O)[C@H](O)[C@H]2O[C@H]2C[C@](C)(N)[C@H](O)[C@H](C)O2)Oc2ccc(cc2Cl)[C@H]1O [vancomycin]
survival (MRSA USA300): 40%
survival [9]: all mice survived

gramicidin
DiS-C3-(5) fluorescence (dissipation of membrane potential) (P. aeruginosa PAO1 [10]): dramatic increase in DiS-C3-(5) fluorescence

gentamicin
susceptibility of stationary phase cells to killing (P. aeruginosa PAO1 [11]; compared with killing by colistin, 4-h exposure): much less susceptible
bactericidal activity on stationary-phase cells with fumarate (P. aeruginosa PAO1 [11]; fumarate 15 mM): restored
